Earlier results as cited in publication PMC3345309 (Hepatology (Baltimore, Md.), 2012).

Tests used:
[1] = system: NS5A-augmented HCV IRES-mediated translation; details: ref [18]
[2] = system: HCV Renilla reporter virus; details: ref [18]

Structure (SMILES): O=c1c(O)c(-c2ccc(O)c(O)c2)oc2cc(O)cc(O)c12 [Quercetin]
- effect on NS5A-augmented IRES-mediated translation [1]: blocked
- effect on virus production [2]: blocked
